Test results taken from patent US20240317762A1, “PHTHALAZINONE-BASED PARP-1 INHIBITORS” (Oregon Health & Science University, priority 2021, published 2024).

What was measured:
[1] = system: pan-nuclear γH2AX in HEK 293T cells; assay: γH2AX immunofluorescence; format: cell-based, human
Experimental: HEK 293T or HEK 293 PARP-1 KO cells were seeded onto poly-d-lysine treated glass coverslips and treated with indicated concentrations of inhibitors for 18 hours. Cells were then washed with 1×PBS and fixed using 4% Sucrose/4% Paraformaldehyde in PBS for 20 minutes. After three washes in 1×PBS, cells were permeabilized in 0.3% Triton X-100 in PBS for 5 minutes followed by an additional three washes in 1×PBS. Coverslips were blocked in 3% BSA/0.1% Triton X-100 in PBS for 1 hour and then placed in primary anti-rabbit phosphoH2Ax antibody (1:200, Cell Signaling) overnight at 4° C. The next morning, cells were washed three times in 1×PBS and treated with blocking solution, 3% BSA/0.1% Triton X-100 in PBS, for 30 minutes before being placed in secondary anti-rabbit Alexa Fluor 647 (1:1000 Jackson Immuno) for 1 hour at RT. After three subsequent 1×PBS washes, coverslips were mounted using ProLong Gold antifade reagent with DAPI (Invitrogen). All immunofluorescence images were taken on a Zeiss ApoTome2 on Axiolmager and analyzed using Zeiss software. Mean intensity of the Alexa Fluor 647 signal was measured after imposing DAPI masks over the nucleus of each cell. All cells within a 20× image, was analyzed (˜3000 cells/condition).
Cell are stained for DAPI and γH2AX. Scale bar indicates 50 μm. FIG. 2B) Quantification of panel a. […] Error bars represent SEM. […] Error bars represent SEM. […] Error bars represent SEM.

D770A PARP-1 = D770A PARP-1 (Homo sapiens, UniProt P09874, D770A); assay: catalytic activity of PARP-1 mutant expressed in HEK 293 cells, D770A; format: biochemical; details: 3 μM AZ0108
D770A PARP-1, sequence (P09874 whole entry D770A): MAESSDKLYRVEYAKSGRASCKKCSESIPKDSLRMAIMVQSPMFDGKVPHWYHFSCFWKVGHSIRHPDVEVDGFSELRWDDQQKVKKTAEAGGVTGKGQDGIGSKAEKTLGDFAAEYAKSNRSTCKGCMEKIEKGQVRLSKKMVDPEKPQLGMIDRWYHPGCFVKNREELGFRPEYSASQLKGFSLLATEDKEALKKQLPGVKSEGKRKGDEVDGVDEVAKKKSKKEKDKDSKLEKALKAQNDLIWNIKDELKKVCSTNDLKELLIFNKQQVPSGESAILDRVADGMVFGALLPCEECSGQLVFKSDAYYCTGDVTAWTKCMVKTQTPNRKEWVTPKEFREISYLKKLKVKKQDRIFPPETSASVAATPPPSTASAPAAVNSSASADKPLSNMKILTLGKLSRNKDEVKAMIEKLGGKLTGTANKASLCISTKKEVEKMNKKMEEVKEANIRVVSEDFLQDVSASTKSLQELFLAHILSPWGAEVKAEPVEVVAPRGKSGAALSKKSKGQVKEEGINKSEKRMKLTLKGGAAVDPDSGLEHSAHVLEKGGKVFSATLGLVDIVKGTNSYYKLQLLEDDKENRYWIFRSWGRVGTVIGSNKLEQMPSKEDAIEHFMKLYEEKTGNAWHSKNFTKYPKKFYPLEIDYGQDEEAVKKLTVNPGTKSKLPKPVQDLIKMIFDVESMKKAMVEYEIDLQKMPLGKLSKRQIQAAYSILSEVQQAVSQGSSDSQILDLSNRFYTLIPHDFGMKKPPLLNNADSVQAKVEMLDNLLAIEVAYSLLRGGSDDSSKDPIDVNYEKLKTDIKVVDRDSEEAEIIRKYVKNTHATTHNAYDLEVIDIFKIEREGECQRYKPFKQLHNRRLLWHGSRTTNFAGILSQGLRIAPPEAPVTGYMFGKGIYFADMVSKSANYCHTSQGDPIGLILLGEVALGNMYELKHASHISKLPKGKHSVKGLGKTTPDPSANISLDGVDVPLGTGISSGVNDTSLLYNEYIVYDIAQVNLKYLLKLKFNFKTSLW

## (S)-4-(difluoro(3-(6-methyl-3-(trifluoromethyl)-5,6,7,8-tetrahydro-[1,2,4]triazolo[4,3-a]pyrazine-7-carbonyl)phenyl)methyl)phthalazin-1(2H)-one [AZ0108]
[1]; HEK 293T cells, 18 hours
  pan-nuclear γH2AX induction: dose-dependent increase
[1]; HEK293 control vs PARP-1 KO cells, 3 μM AZ0108
  dependence of pan-nuclear γH2AX signal on PARP-1: dependent on the presence of PARP-1
D770A PARP-1
  inhibition of D770A PARP-1 activity: inhibited
